Laboratory results as given in patent US11931347B2, “Method of screening for agents for differentiating stem cells” (MINERVA BIOTECHNOLOGIES CORPORATION, priority 2015, dated 2024).

Tests used:
[1] = test system: OV-90 MUC1* negative ovarian cancer cells; assay: cancer cell proliferation assay (Calcein); assay type: cell-based; details: 96 hours (FIG. 114)
[2] = test system: SK-OV-3 MUC1* positive ovarian cancer cells; assay: cancer cell proliferation assay (Calcein); assay type: cell-based; details: 96 hours (FIG. 112)
Description: Small molecule inhibition of cancer cell proliferation studies were also performed on several cancer sub-types. […] The small molecules of the invention had the most robust effect on T47D breast cancer cells, which are highly positive for MUC1* growth factor receptor, and its activating ligands NME7AB and NME7-X1. […] For the cancer cell proliferation experiment cancer cells were plated at constant densities (6000 cells/well) into a 96-well White-walled/Clear-bottom Tissue Culture Treated plate (Corning Incorporated, Big Flats, N.Y.). Small molecule analogs are added at T=24 hours in media with 2% FBS. […] […] Calcein fluorescence (final concentration 0.5 uM) is used to assess cell viability. Cancer cell fluorescence is measured in a TECAN SAFIRE^2 spectrophotometer plate reader. The plate is then imaged using an Olympus IX71 fluorescence imaging microscope and montage of the resulting images are assembled using ImageJ.

T47D breast cancer cells = assay: cancer cell proliferation assay (Calcein live cell stain); assay type: cell-based, human; details: live cell Calcein stain, 96 hours (FIG. 113)

Cc1sc2c(c1C)C(c1ccc(Cl)cc1)=N[C@@H](CC(=O)OC(C)(C)C)c1nnc(C)n1-2 [JQ1+, JQ1]
effect on growth of OV-90 cells [1]: neither the compounds of the invention nor JQ1 or SU11274 had any apparent effect
effect on growth of SK-OV-3 cells [2]: slight effect
inhibition of growth of T47D cells (T47D breast cancer cells): inhibited growth
